Results taken from ChEMBL document CHEMBL1201862, “PubChem BioAssay data set” (2004).
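Growth conditions: 96-well plates. Treatment: test compound, 48 hours, 5 concentrations. Analysis: linear interpolation between bracketing concentrations; unreached endpoints set to highest concentration. GI50 is the concentration that inhibits growth by half.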 Calls of active or inactive are those of the source. Cut-off read from the data, not from the text of the source: active = GI50 up to about 1.1 µM and inactive = higher.

What was measured:
Assay in all cases: NCI anticancer screen, dose series, 48 h
[1] = test system: HOP-62
[2] = test system: EKVX
[3] = test system: TK-10
[4] = test system: NCI-H522
[5] = test system: SK-OV-3
[6] = test system: HCT-116
[7] = test system: ACHN
[8] = test system: UACC-257
[9] = test system: MOLT-4
[10] = test system: LXFL 529
[11] = test system: A498
[12] = test system: HCC 2998
[13] = test system: OVCAR-4
[14] = test system: K562
[15] = test system: SF-295
[16] = test system: RXF 393
[17] = test system: SK-MEL-5

Measured: GI50

CN(C)CC1CCCC/C1=N/OC(=O)c1ccc(Cl)cc1 (stereo unspecified)
inactive: [1] > 100 µM | [2] > 100 µM | [3] > 100 µM | [4] > 100 µM | [5] > 100 µM | [6] > 100 µM | [7] > 100 µM | [8] > 100 µM | [9] > 100 µM | [10] > 100 µM | [11] > 100 µM | [12] > 100 µM | [13] > 100 µM | [14] > 100 µM | [15] > 100 µM | [16] > 100 µM

CCNC(=O)O/N=C1/C=C2CC[C@@H]3C(CC[C@@]4(C)C3CC[C@@H]4OC(=O)NCC)[C@@]2(C)CC1 (stereo partly specified)
inactive: [1] 11.4 µM | [2] 4.99 µM | [17] 3.44 µM | [3] 2.56 µM | [4] 1.95 µM | [5] 3.68 µM | [6] 3.67 µM | [7] 2.75 µM | [8] 2.24 µM | [9] 2.36 µM | [10] 1.79 µM | [11] > 100 µM | [12] 4.3 µM | [13] 2.47 µM | [14] 2.87 µM | [15] 2.41 µM | [16] 1.62 µM

C/N=C(\SC)N(C)c1nc(=[N+](C)C)ss1.[O-][Cl+3]([O-])([O-])[O-]
inactive: [1] > 100 µM | [2] 45.3 µM | [17] 7.21 µM | [3] > 100 µM | [4] 13.2 µM | [5] > 100 µM | [6] > 100 µM | [7] > 100 µM | [8] > 100 µM | [9] 9.53 µM | [10] 58.6 µM | [11] 4.61 µM | [12] > 100 µM | [14] 10.7 µM | [15] > 100 µM | [16] > 100 µM

COc1ccc(/C=C2\CCC(CCN3CCOCC3)C2=O)cc1 (stereo unspecified)
inactive: [1] > 100 µM | [2] > 100 µM | [17] > 100 µM | [3] > 100 µM | [6] > 100 µM | [7] > 100 µM | [8] > 100 µM | [9] > 100 µM | [10] > 100 µM | [11] > 100 µM | [12] > 100 µM | [13] > 100 µM | [14] > 100 µM | [15] > 100 µM | [16] > 100 µM

Cn1c(=O)c2nc(-c3ccc(Cl)cc3)oc2n(C)c1=O
inactive: [2] > 100 µM | [17] > 100 µM | [3] > 100 µM | [4] > 100 µM | [6] > 100 µM | [7] > 100 µM | [8] > 100 µM | [9] > 100 µM | [10] > 100 µM | [11] > 100 µM | [12] > 100 µM | [13] > 100 µM | [14] > 100 µM | [15] > 100 µM | [16] > 100 µM

C#CC[C@]12CC(=O)CC[C@H]1CC(=O)C2
inactive: [1] > 100 µM | [17] > 100 µM | [3] > 100 µM | [4] > 100 µM | [5] > 100 µM | [6] > 100 µM | [7] > 100 µM | [8] > 100 µM | [9] > 100 µM | [10] > 100 µM | [11] > 100 µM | [12] > 100 µM | [13] > 100 µM | [14] > 100 µM | [16] > 100 µM

N#CC(C(=O)C(=O)Nc1ccc(Cl)c(Cl)c1)c1ccc(Cl)cc1 (stereo unspecified)
inactive: [1] > 100 µM | [2] > 100 µM | [17] 74.8 µM | [3] > 100 µM | [4] 25.2 µM | [5] > 100 µM | [6] 23.6 µM | [7] 83 µM | [8] > 100 µM | [9] 64.7 µM | [10] 77.1 µM | [11] > 100 µM | [12] 51.9 µM | [14] 23.4 µM | [15] 87.9 µM | [16] > 100 µM

Cc1ccc(NC(=O)SCCC(=O)O)cc1NC(=O)SCCC(=O)O
inactive: [1] > 100 µM | [2] > 100 µM | [3] > 100 µM | [4] > 100 µM | [6] > 100 µM | [7] > 100 µM | [8] > 100 µM | [9] > 100 µM | [10] > 100 µM | [11] > 100 µM | [12] > 100 µM | [13] > 100 µM | [14] > 100 µM | [15] > 100 µM | [16] > 100 µM

CCOC(=O)/C(=C/c1ccc(OC)c(OC)c1)C(=O)c1ccccc1
inactive: [1] 19.5 µM | [2] 25.8 µM | [17] 14.3 µM | [3] 26.4 µM | [4] 13.9 µM | [5] 24.2 µM | [7] 27.9 µM | [8] 15.1 µM | [9] 17.5 µM | [10] 12.2 µM | [11] 22.3 µM | [12] 18.3 µM | [13] 21.4 µM | [14] 10.3 µM | [15] 21.2 µM

C=C1CCc2occ(C)c2C2C1C1=C(CC(C)C1=O)C1OC12C (stereo unspecified)
inactive: [1] > 100 µM | [2] > 100 µM | [17] 52.2 µM | [3] > 100 µM | [4] 44.8 µM | [5] > 100 µM | [6] 83 µM | [7] > 100 µM | [8] > 100 µM | [9] > 100 µM | [10] > 100 µM | [11] > 100 µM | [12] > 100 µM | [13] > 100 µM | [14] > 100 µM | [15] > 100 µM | [16] > 100 µM

Cc1ccc(Oc2ccccc2N)cc1
inactive: [1] 39 µM | [2] 37.5 µM | [17] 7.89 µM | [3] 88.1 µM | [5] > 100 µM | [6] 9.51 µM | [8] 52.5 µM | [9] 15.4 µM | [10] 15.7 µM | [11] > 100 µM | [12] 15.4 µM | [13] 50.9 µM | [14] 37.8 µM | [15] 37.6 µM | [16] 25.9 µM

COC(=O)NN1C(C)=C(C(=O)OC)C2(C#N)C(C(=O)OC)=C(C)N(NC(=O)OC)C12N (stereo unspecified)
inactive: [1] > 100 µM | [2] > 100 µM | [3] > 100 µM | [4] > 100 µM | [5] > 100 µM | [6] > 100 µM | [7] > 100 µM | [8] > 100 µM | [9] > 100 µM | [10] > 100 µM | [11] > 100 µM | [12] > 100 µM | [13] > 100 µM | [14] > 100 µM
